We go through ten compounds from ChEMBL document CHEMBL4387737, “Synthesis of Isosteviol analogues as potential protective agents against Doxorubicin-induced cardiomyopathy in zebrafish embryos” (Bioorg Med Chem Lett, 2019).

In data set [1] the test system is Danio rerio. Briefly: Cardioprotective activity in myl7:EGFP transgenic zebra fish embryo assessed as decrease in DOX-induced cardiac dysfunction at 100 uM dosed at 24 hpf and measured 72 hpf by fluorescent microscopy. It is filed as functional, organism-based.
Data set [2] has as its system Danio rerio. Briefly: Cardioprotective activity in myl7:EGFP transgenic zebra fish embryo assessed as recovery of in DOX-induced shortening fraction at 100 uM dosed at 24 hpf and measured 72 hpf by fluorescent microscopy. It is filed as functional, organism-based.
For data set [3], the system named is Danio rerio. Briefly: Cardioprotective activity in myl7:EGFP transgenic zebra fish embryo assessed as decrease in DOX-induced pericardial edema at 100 uM dosed at 24 hpf and measured 72 hpf by fluorescent microscopy. Format: functional, organism-based.
Data set [4] relates to Danio rerio. In words: Cardioprotective activity in myl7:EGFP transgenic zebra fish embryo assessed as decrease in DOX-induced morphological changes at 100 uM dosed at 24 hpf and measured 72 hpf by fluorescent microscopy. Format: functional, organism-based.
Data set [5] concerns Danio rerio. Briefly: Cytoprotection in myl7:EGFP transgenic zebra fish embryo assessed as reduction in DOX-induced lethal toxicity by measuring LC50 dosed at 24 hpf and measured 96 hpf (reference value: 51.56 uM). It is filed as functional.
Data set [6] relates to Danio rerio. Briefly: Cardioprotective activity in myl7:EGFP transgenic zebra fish embryo assessed as recovery of in DOX-induced heart rate impairment at 100 uM dosed at 24 hpf and measured 72 hpf by fluorescent microscopy. It is filed as functional, organism-based.
Data set [7] in a line: Toxicity in myl7:EGFP transgenic zebra fish embryo assessed as reduction in survival rate at 25 to 100 uM dosed at 24 hpf and measured 96 hpf. The note with it: zebrafish, in vivo. It is filed as organism-based, Danio rerio.
Data set [8] in a line: Toxicity in myl7:EGFP transgenic zebra fish embryo assessed as reduction in survival rate dosed at 24 hpf and measured 96 hpf. Conditions: zebrafish, in vivo. It is filed as organism-based, Danio rerio.

Structures are written as SMILES. Active and inactive are the calls of the source. The rule behind the calls is not given here.

With `C[C@]12CC[C@H]3[C@]4(C)CCC[C@@](C)(C(=O)O)[C@H]4CC[C@@]3(C1)[C@H](CO)C2=O`, the outcome in the data set on Danio rerio [1], with Danio rerio [2], in the data set on Danio rerio [3], with Danio rerio [4] and in the data set with Danio rerio [6] was inactive. For the same compound, the LC50 in the data set on Danio rerio [5] stood at 74.83 µM. For the same compound, the Activity entry in data set [7] is “Non-Toxic”.
Consider `C[C@]12CC[C@H]3[C@]4(C)CCC[C@@](C)(C(=O)O)[C@H]4CC[C@@]3(C1)[C@H](C=O)[C@H]2O`, for which the outcome in the data set on Danio rerio [1], in the data set on Danio rerio [2], in the data set on Danio rerio [3], with Danio rerio [4] and in the data set on Danio rerio [6] was Active. For the same compound, the LC50 with Danio rerio [5] was found to be 92.61 µM. The Activity result in data set [7] was “Non-Toxic”.
As to `C[C@@]12CC[C@@H]3[C@@](CC[C@H]4[C@@]3(C)CCC[C@@]4(C)C(=O)OCCCCCC(=O)O)(C[C@H]1O)C2`, the result with Danio rerio [5] was inactive. Also, the LD in data set [8] fell in the range of 50 to 100 µM.
On to `C[C@@]12CC[C@@H]3[C@@](CC[C@H]4[C@@]3(C)CCC[C@@]4(C)C(=O)OCCO)(C[C@H]1O)C2`, for which, in the data set with Danio rerio [5], the outcome was inactive.
`C[C@]12CC[C@H]3[C@]4(C)CCC[C@@](C)(C(=O)O)[C@H]4CC[C@@]3(C1)[C@H](C(=O)O)[C@H]2O`: the outcome with Danio rerio [1], in the data set with Danio rerio [2], in the data set on Danio rerio [3], in the data set with Danio rerio [4] and with Danio rerio [6] was Active. Further, the LC50 in the data set on Danio rerio [5] stood at 66.62 µM. For the same compound, the Activity result in data set [7] is “Non-Toxic”.
For `C[C@@]12CC[C@@H]3[C@@](CC[C@H]4[C@@]3(C)CCC[C@@]4(C)C(=O)OCCCCCCO)(C[C@H]1O)C2`, the outcome with Danio rerio [5] was inactive. The LD in data set [8] lay in the range of 50 to 100 µM.
The corresponding values for `C[C@@]12CC[C@@H]3[C@@](CC[C@H]4[C@@]3(C)CCC[C@@]4(C)C(=O)OCCCCCCCCO)(C[C@H]1O)C2` are “inactive” and 50 to 100 µM.
In the case of `C[C@]12CC[C@H]3[C@]4(C)CCC[C@@](C)(C(=O)O)[C@H]4CC[C@@]3(C1)[C@H](C=O)C2=O`, the result in the data set with Danio rerio [1], in the data set on Danio rerio [2], with Danio rerio [3], in the data set on Danio rerio [4] and in the data set with Danio rerio [6] was inactive. The Activity entry in data set [7] is reported as “Non-Toxic”.
In the case of `C[C@@]12CC[C@@H]3[C@@](CC[C@H]4[C@@]3(C)CCC[C@@]4(C)C(=O)OCCCCCCCC(=O)O)(C[C@H]1O)C2`, in the data set on Danio rerio [5], the outcome was inactive. Also, in data set [8], the LD fell in the range of 50 to 100 µM.
As to `C[C@]12CC[C@H]3[C@]4(C)CCC[C@@](C)(C(=O)O)[C@H]4CC[C@@]3(C1)[C@H](CO)[C@H]2O`, the result in the data set on Danio rerio [1], with Danio rerio [2], in the data set on Danio rerio [3], with Danio rerio [4] and in the data set with Danio rerio [6] was Active. In addition, in the data set with Danio rerio [5], the LC50 was 68.5 µM. In data set [7], the Activity entry is “Non-Toxic”.

Usually LC50 stands for the concentration lethal to half of the exposed cells or organisms.
